The subject of one assay is 3T3 L1 adipocytes. Nature of the assay: Reversal of HIV protease inhibitor block of glucose transport in cells (14C-2-deoxy-D-glucose uptake). Type of assay: cell-based. To be noted: for effect of HIV protease inhibitor drug on glucose transport activity: 3T3 L1 adipocytes; for glucose transport: 3T3 L1 cells; for effect on glucose transport activity inhibited by HIV protease inhibitor drugs: 3T3 L1 adipocytes in presence of Ritonavir, Indinavir or Amprenavir. The method, then:
Stimulation of the insulin receptor leads to the transport of glucose from the blood into cells, thus modulating blood glucose levels. 3T3 L1 fibroblasts (ATCC) were grown in Dulbecco's modified Eagle's medium (DMEM) with 10% fetal bovine serum (FBS). The cells were plated at a density of 3×10^4 cells/ml in 96 well plates (0.1 ml/well). Two days after confluence was reached, the cells were treated for 3 days with 0.5 mM isobutylmethylxanthine (IBMX), 1 μM dexamethasone, and 1.7 μM insulin. The cells were then transferred to DMEM with 10% FBS and supplemented with 1.7 μM insulin for 2 more days. The cells were maintained in DMEM with 10% FBS for an additional 4 days. Finally, the cells were serum starved overnight in 0.1% bovine serum albumin (BSA) in DMEM.
The following day, the cells were pretreated with Indinavir, Ritonavir, or Amprenavir (at the concentrations indicated in the Tables below) in a buffer containing 150 mM NaCl, 1.7 mM KCl, 0.9 mM CaCl2 1.47 mM K2HPO4 (pH 7.4) and 0.01% BSA for 6 minutes followed by treatment with a compound described in this patent (56 μM compound 1; 20 μM compound 2) with or without 100 nM insulin for 30 minutes. Following incubation, the cells were labeled with ^14C-labeled 2-deoxy-D-glucose (0.5 μCi/ml) and incubation was continued for additional 30 minutes at 37° C. The cells were then washed 3 times with ice-cold PBS/20 mM glucose and lysed in 100 μl of lysis buffer (50 mM Hepes pH 7.6, 1% Triton X-100) for 30 minutes at room temperature. Radioactivity in the lysate was quantified by scintillation counting.
Once ^14C-2-deoxy-D-glucose is transported into the cells, it is not released. Glucose transport is, therefore, proportional to the amount of radioactivity in the lysate.

A further assay concerns male CD rats. Nature of the assay: Reversal of protease inhibitor-mediated insulin resistance in normal rats (oral glucose challenge). It counts as in vivo, rat. The following applies: indinavir sulfate plus compound 1, oral. The protocol: Seven to nine week-old male CD rats (Charles River Laboratories, Hollister, Calif.) were used to study the effects of protease inhibitor and compound 1. Animals were kept in a 12 h/12 h light/dark cycle and were fasted overnight.
Indinavir sulfate was prepared in water, and compound 1 was prepared in PBS. Seven animals (average weight 300 grams) were used in each treatment condition. The animals were treated with vehicle or indinavir sulfate or indinavir sulfate plus compound 1 by oral administration. After 30 min, the animals were challenged with oral glucose load (2 g/kg), and blood glucose measurements were taken at 0 min, 10 min, 20 min, 30 min, 60 min, 90 min and 120 min by tail bleeding. Glucose measurements were made with a Glucometer and Glucose strips (Bayer).
The blood glucose levels are reported as the percentage of the values before challenge (“zero time” values).
Blood samples obtained from 0 min and 30 min time points were analysed for plasma insulin levels by ELISA (ALPCO Diagnostics, Windham, N.H.).

Where [1] appears, read: 5 μM Amprenavir pretreatment, 56 μM compound 1 / 20 μM compound 2.
Setting [2] is: 5 μM Indinavir pretreatment, 56 μM compound 1 / 20 μM compound 2.
Setting [3] is: 10 μM Amprenavir pretreatment, 56 μM compound 1 / 20 μM compound 2.
[4] abbreviates: 10 μM Indinavir pretreatment, 56 μM compound 1 / 20 μM compound 2.
The mark [5] stands for this setting: 20 μM Indinavir pretreatment, 56 μM compound 1 / 20 μM compound 2.

Each structure is given as a SMILES string.

As to `CC(C)(C)NC(=O)[C@@H]1CN(Cc2cccnc2)CCN1C[C@@H](O)C[C@@H](Cc1ccccc1)C(=O)N[C@H]1c2ccccc2C[C@H]1O` [Indinavir, reference compound], the “effect of HIV protease inhibitor drug on glucose transport activity” value in the assay on 3T3 L1 adipocytes is “inhibited”.
Same read-out and setting: under `CC(C)CN(C[C@@H](O)[C@H](Cc1ccccc1)NC(=O)O[C@H]1CCOC1)S(=O)(=O)c1ccc(N)cc1` [Amprenavir, reference compound] stands “inhibited”.
Regarding `O=C(Nc1ccc2c(O)cc(S(=O)(=O)Nc3ccc(Cl)c(S(=O)(=O)O)c3)cc2c1)Nc1ccc2c(O)cc(S(=O)(=O)Nc3ccc(Cl)c(S(=O)(=O)O)c3)cc2c1` [Compound 1], the “protease inhibitor-mediated insulin resistance” value in the assay with male CD rats is “Reversal of Protease Inhibitor-mediated Insulin Resistance”. Besides, the glucose transport in the assay on 3T3 L1 adipocytes (setting [1]) was 1.83 fold over fold over 50 nM insulin; with 3T3 L1 adipocytes (setting [2]) it was 1.34 fold over fold over 50 nM insulin; in the assay with 3T3 L1 adipocytes (5 μM Ritonavir pretreatment, 56 μM compound 1), 1.32 foldover fold over 50 nM insulin; in the assay on 3T3 L1 adipocytes (setting [3]), 1.53 fold over fold over 50 nM insulin; in the assay on 3T3 L1 adipocytes (setting [4]) it was 1.16 fold over fold over 50 nM insulin; in the assay on 3T3 L1 adipocytes (20 μM Amprenavir pretreatment, 56 μM compound 1), 1.21 fold over fold over 50 nM insulin. The glucose transport in the assay with 3T3 L1 adipocytes (setting [5]) was 1.12 fold over fold over 50 nM insulin. Further, the “effect on glucose transport activity inhibited by HIV protease inhibitor drugs” value with 3T3 L1 adipocytes is given as “increase the glucose transport activity”.
For the compound `O=C(Nc1ccc2c(O)c(/N=N/c3ccc(/N=N/c4ccc(S(=O)(=O)O)cc4)cc3S(=O)(=O)O)c(S(=O)(=O)O)cc2c1)Nc1ccc2c(O)cc(S(=O)(=O)O)c(N=Nc3ccc(/N=N/c4ccc(S(=O)(=O)O)cc4)cc3S(=O)(=O)O)c2c1` [Compound 2], the glucose transport in the assay with 3T3 L1 adipocytes (setting [1]) was 1.25 foldover fold over 50 nM insulin; in the assay with 3T3 L1 adipocytes (setting [2]), 1.38 fold over fold over 50 nM insulin; in the assay with 3T3 L1 adipocytes (setting [3]), 1.07 foldover fold over 50 nM insulin; in the assay on 3T3 L1 adipocytes (setting [4]), 1.25 fold over fold over 50 nM insulin; in the assay with 3T3 L1 adipocytes (setting [5]), 1.02 fold over fold over 50 nM insulin. Further, in the assay on 3T3 L1 adipocytes, the “effect on glucose transport activity inhibited by HIV protease inhibitor drugs” value is listed as “increase the glucose transport activity”.
In the case of `CC(C)c1nc(CN(C)C(=O)N[C@H](C(=O)N[C@@H](Cc2ccccc2)C[C@H](O)[C@H](Cc2ccccc2)NC(=O)OCc2cncs2)C(C)C)cs1` [Ritonavir, reference compound], in the assay with 3T3 L1 adipocytes, the “effect of HIV protease inhibitor drug on glucose transport activity” value was “inhibited”.

These data come from patent publication US20020061927A1, “Insulin receptor activators for the treatment of metabolic disorders induced by treatment with HIV protease inhibitors” (priority 2000, published 2002).
